Results on 17 compounds are retold here after US12686668B2, “Leukotriene synthesis inhibitors” (Naegis Pharmaceuticals Inc., priority 2019, dated 2026).

The term inhibition denotes the drop in the measured response relative to a control, in per cent. Usually IC50 stands for the concentration at which inhibition is half-maximal.

Test [1] addresses T1, recombinant human leukotriene A4 hydrolase enzyme (Homo sapiens, UniProt P09960).
T1 construct: purchased Cayman Chemical 10007817
T1 sequence (P09960 1-611): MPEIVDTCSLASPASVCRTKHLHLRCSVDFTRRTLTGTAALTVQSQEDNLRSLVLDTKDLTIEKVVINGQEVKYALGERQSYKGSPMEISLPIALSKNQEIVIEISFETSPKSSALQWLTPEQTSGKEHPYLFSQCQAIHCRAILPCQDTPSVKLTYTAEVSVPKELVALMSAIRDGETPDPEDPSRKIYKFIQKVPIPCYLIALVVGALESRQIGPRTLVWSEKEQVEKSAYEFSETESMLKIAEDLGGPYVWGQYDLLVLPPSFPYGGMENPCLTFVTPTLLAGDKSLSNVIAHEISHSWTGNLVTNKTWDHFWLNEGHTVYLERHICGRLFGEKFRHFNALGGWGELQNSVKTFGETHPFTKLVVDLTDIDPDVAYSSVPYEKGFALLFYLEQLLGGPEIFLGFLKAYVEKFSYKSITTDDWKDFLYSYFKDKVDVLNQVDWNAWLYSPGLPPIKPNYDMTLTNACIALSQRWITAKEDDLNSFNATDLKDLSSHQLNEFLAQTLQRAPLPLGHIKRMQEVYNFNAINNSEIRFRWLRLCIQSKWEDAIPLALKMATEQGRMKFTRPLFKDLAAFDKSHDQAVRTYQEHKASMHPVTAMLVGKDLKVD
The test can be described thus: Amino-peptidase assay, PGP. In kind it is biochemical. The conditions noted are these: concentration not given. As for the experimental part:
A series of compound concentrations were pre-incubated with 50 ng of recombinant human leukotriene A4 hydrolase enzyme (Cayman Chemical, 10007817) in 50 L assay buffer (50 mM Tris-HCl, 100 mM KCl). The reaction was stimulated by adding 50 L 1 mM proline-glycine-proline (Bachem, H-7284) and incubated for 30 minutes at 37° C. The reaction was stopped with the addition of 150 μL of glacial acetic acid. The amount of free proline released from the peptide was detected through a reaction with ninhydrin. 150 μL of 25 mg/mL ninhydrin (BDH, B10132) in 60:40 acetic acid/water was added to each sample, and boiled for 30 minutes at 100° C. and once samples had cooled to room temperature, 350 μL of toluene was added to extract the ninhydrin reaction product. The amount of free proline was determined by comparing the absorbance at 520 nm to the L-proline (Sigma Aldrich, 81709) reference standard. Inhibition of free proline production was calculated based on control samples.

Test [2] concerns LTB4 production in MC/9 cells. The test can be described thus: MC/9 HPLC assay, inhibition of LTB4 production. As to conditions: Mus musculus, MC9, Table 2 column 4, no concentration in head (1 μM according to b732), read-out: % Inhibition LTB4. In kind it is cell-based. As for the experimental part: (§1) Cultured MC/9 cells (3×10^6 cells) in 1 mL HBSS were pre-incubated with a series of concentrations of compound solubilized in DMSO for 30 minutes. Production of leukotrienes were stimulated with the addition of 1 μM calcium ionophore (A23187), diluted from a 4 mM DMSO stock in HBSS, and incubated at room temperature for 20 minutes. The reaction was stopped with the addition of 500 μL of methanol containing 20 ng/mL prostaglandin B2 as an internal standard. Samples were collected and stored at −20° C. at least 2 hr or overnight before centrifuged at 13,000 rpm for 15 minutes and loaded onto C18 SEP-PAK columns (Canadian Lifesciences IS12000) for solid phase extraction. The leukotrienes were analyzed by HPLC using an ACE C18 column (4.5 mm×150 mm, 5 m) eluted with acetonitrile/methanol/water mixture with H3PO4, pH 3.5 (37:26:37) with a flow rate of 1.8 mL/min. The amount of LTB4 (Cayman Chemical, 20110) and LTC4 (Cayman Chemical, 20210) were calculated based on reference standards and the level of inhibition of LTB4 production induced by the test compounds was calculated relative to control samples. The results are provided in Table 2, where Compound No. refers to the compounds identified in Table 1.

Test [3] has as its system LTC4 production in MC/9 cells. The test can be described thus: MC/9 HPLC assay, inhibition of LTC4 production. Format: cell-based. The conditions noted are these: Mus musculus; for inhibition at 3 µM: MC9, 3 μM, A23187 stimulated; for inhibition at 1 µM: MC9, Table 2 column 3, no concentration in head (1 μM according to b732), read-out: % Inhibition LTC4. As for the experimental part: as §1

The subject of test [4] is LTB4 production in porcine or human whole blood. Nature of the test: Whole blood HPLC assay, inhibition of LTB4 production. Format: cell-based. The conditions noted are these: 5 point curve, porcine or human whole blood (not specified). The method, then:
Porcine or human whole blood (1 mL) was pre-incubated with a series of concentrations of compound solubilized in DMSO for 30 minutes. Production of leukotrienes were stimulated with the addition of 20 μM calcium ionophore (A23187), diluted from a 4 mM DMSO stock in HBSS, and incubated at room temperature for 20 minutes. In porcine blood 20 μM arachidonic acid was added in addition to the calcium ionophore. The blood was centrifuged at 2,000 rpm for 15 minutes, and the plasma fraction removed for further processing. Plasma samples were diluted with 500 μL acidified water (HCl pH 3.0) and loaded onto C18 SEP-PAK columns (Canadian Lifesciences IS12000) for solid phase extraction. The leukotrienes were analyzed by HPLC using an ACE C18 column (4.5 mm×150 mm, 5 m) eluted with acetonitrile/methanol/water mixture with H3PO4, pH 3.5 (37:26:37) with a flow rate of 1.8 mL/min. The amount of LTB4 (Cayman Chemical, 20110) was calculated based on reference standards and the level of inhibition of LTB4 production induced by the test compounds was calculated relative to control samples. The results provided in Table 3 are IC50 values calculated based on a 5 point curve, where Compound No. refers to the compounds identified in Table 1.

For test [5], the target named is T1, recombinant human leukotriene A4 hydrolase enzyme. The test can be described thus: Amino-peptidase assay, alanine-4-nitroanalide. Format: biochemical. As to conditions: negative values = augmented peptidase activity, read-out: % Inhibition aminopeptidase-Alanine-4-nitroanalide activity of LTA4H (3 μM). The method, then:
A series of compound concentrations were pre-incubated in the absence of light with 0.5 μg of recombinant human leukotriene A4 hydrolase enzyme (Cayman Chemical 10007817) in 50 μL assay buffer (50 mM Tris-HCl, 100 mM KCl). The reaction was stimulated by adding 50 μL 6 mM alanine-4-nitroanilide (Sigma Aldrich A9325) in assay buffer. The amount of amino-peptidase activity was measured by determining the change in absorbance at 405 nm due to 4-nitroanaline production and comparing the rate of change to a reference standard (Sigma Aldrich 185310). Amino-peptidase activity was compared to control samples and the level of inhibition was calculated. Compounds that augment peptidase activity are represented by negative values.

For `CCC(=O)CCc1ccc(Oc2nc3ccccc3s2)c(OC(C)C)c1` [Compound 112, 1-[4-(1,3-benzothiazol-2-yloxy)-3-(iso-propyloxy)-phenyl]pentan-3-one], the “% Inhibition aminopeptidase-PGP activity of LTA4H” value in test [1] was below 25%.
As for `CCC(O)(CCc1ccc(Oc2nc3ccccc3s2)c(OC(C)C)c1)C(F)(F)F` (stereo not drawn) [Compound 115, 1-[4-(1,3-benzothiazol-2-yloxy)-3-(iso-propyloxy)phenyl]-3-(trifluoromethyl)pentan-3-ol], the inhibition at 1 µM in test [2] and in test [3] was below 10% each time. The same compound gave an inhibition at 3 µM in test [3] below 10%. Moreover, in test [4], the IC50 was above 10 µM.
As to `CCC(O)(CCc1ccc(Oc2nc3ccccc3s2)c(OCC2CC2)c1)C(F)(F)F` (stereo not drawn) [Compound 117, 1-[4-(1,3-benzothiazol-2-yloxy)-3-(cyclopropyl-methoxy)-phenyl]-3-(trifluoromethyl)-pentan-3-ol], the inhibition at 1 µM in test [2] was 70 to 90%; in test [3], 30 to 50%. In test [4], this compound came in with an IC50 above 10 µM.
The corresponding values for `COc1cc(CCC(O)c2ccccc2)ccc1Oc1nc2ccccc2s1` (stereo not drawn) [Compound 132, 3-[4-(1,3-benzothiazol-2-yloxy)-3-methoxyphenyl]-1-phenylpropan-1-ol] are above 90%, 70 to 90% and above 10 µM.
Regarding `COc1cc(C(O)C(F)(F)F)ccc1Oc1nc2ccccc2s1` (stereo not drawn) [Compound 137, 1-[4-(1,3-benzothiazol-2-yloxy)-3-methoxyphenyl]-2,2,2-trifluoroethanol], the inhibition at 1 µM in test [2] fell in the range of 10 to 30%. In test [3], this compound came in with an inhibition at 3 µM of 50 to 70%. For the same compound, the IC50 in test [4] is above 10 µM.
Regarding `CCNC(c1ccc(Oc2nc3ccccc3s2)c(OC)c1)C(F)(F)F` (stereo not drawn) [Compound 138, 1-[4-(1,3-benzothiazol-2-yloxy)-3-methoxyphenyl]-N-ethyl-2,2,2-trifluoroethanamine], the inhibition at 1 µM in test [2] fell in the range of 10 to 30%. In test [3], the inhibition at 3 µM lay within 70 to 90% and the inhibition at 1 µM was 30 to 50%. The compound also registered an IC50 in test [4] of 1 to 10 µM.
On to `CC(O)CCc1ccc(Oc2nc3ccccc3s2)cc1` (stereo not drawn) [Compound 141, 4-[4-(1,3-benzothiazol-2-yloxy)phenyl]butan-2-ol], for which the inhibition at 1 µM in test [2] is above 90%; in test [3] it was 10 to 30%. Moreover, in test [4], the IC50 fell in the range of 1 to 10 µM.
As for `CCC(C)(O)CCc1ccc(Oc2nc3ccccc3o2)cc1` (stereo not drawn) [Compound 146, 1-[4-(1,3-benzoxazol-2-yloxy)phenyl]-3-methylpentan-3-ol], the inhibition at 1 µM in test [2] is above 90%; in test [3] it was 10 to 30%. The IC50 in test [4] was in the range of 1 to 10 µM. Further, the inhibition at 3 µM in test [5] was below 25%.
With `CCC(O)(CCc1ccc(Oc2nc3ccccc3s2)c(C(F)(F)F)c1)C(F)(F)F` (stereo not drawn) [Compound 155, 1-[4-(1,3-benzothiazol-2-yloxy)-3-(trifluoromethyl)-phenyl]-3-(trifluoromethyl)-pentan-3-ol], the inhibition at 1 µM in test [2] is 10 to 30%; in test [3], below 10%. This compound also displayed an IC50 in test [4] above 10 µM.
The corresponding values for `CC(CCc1ccc(Oc2nc3ccccc3s2)cc1)N1CCCC1` (stereo not drawn) [Compound 156, 2-{4-[3-(pyrrolidin-1-yl)butyl]phenoxy}-1,3-benzothiazole] are above 90%, below 10% and 0.1 to 1 µM.
Take `CC(CCc1ccc(Oc2nc3ccccc3s2)cc1)N1CCCC1C(=O)O` (stereo not drawn) [Compound 157, 1-{4-[4-(1,3-benzothiazol-2-yloxy)phenyl]butan-2-yl}pyrrolidine-2-carboxylic acid]: the inhibition at 1 µM was 70 to 90% in test [2] and below 10% in test [3]. In addition, in test [4], the IC50 was in the range of 1 to 10 µM.
Turning to `c1ccc2sc(Oc3ccc(CN4CCCC4)cc3)nc2c1` [Compound 164, 2-[4-(pyrrolidin-1-ylmethyl)phenoxy]-1,3-benzothiazole], the inhibition at 3 µM in test [3] was below 10%; in test [5], above 75%. The compound further yielded an IC50 in test [4] of 0.1 to 1 µM.
The like results for `OC(c1ccc(Oc2nc3ccccc3s2)cc1)C(F)(F)F` (stereo not drawn) [Compound 166, 1-[4-(1,3-benzothiazol-2-yloxy)phenyl]-2,2,2-trifluoroethanol] were, in that order, 30 to 50%, below 25% and 0.1 to 1 µM.
As to `OC(c1ccc(Oc2nc3ccccc3s2)c(Cl)c1)C(F)(F)F` (stereo not drawn) [Compound 167, 1-[4-(1,3-benzothiazol-2-yloxy)-3-chlorophenyl]-2,2,2-trifluoroethanol], the inhibition at 1 µM in test [2] and in test [3] was 10 to 30% in each case. The inhibition at 3 µM in test [3] is 10 to 30%; in test [5] it was above 75%. This compound also showed an IC50 in test [4] above 10 µM.
For `CNC(c1ccc(Oc2nc3ccccc3s2)cc1)C(F)(F)F` (stereo not drawn) [Compound 178, 1-[4-(1,3-benzothiazol-2-yloxy)phenyl]-2,2,2-trifluoro-N-methylethanamine], the “% Inhibition aminopeptidase-PGP activity of LTA4H” value in test [1] is 70-90%. Moreover, the values for the inhibition at 3 µM in test [3] and in test [5] were below 10% and 70 to 90%, respectively.
The corresponding values for `OC(c1ccc(Oc2nc3c(F)cc(F)cc3s2)cc1)C(F)(F)F` (stereo not drawn) [Compound 179, 1-{4-[(4,6-difluoro-1,3-benzothiazol-2-yl)oxy]phenyl}-2,2,2-trifluoroethanol] are above 75%, 10 to 30% and above 75%.
The like results for `CC(O)(c1ccc(Oc2nc3c(F)cc(F)cc3s2)cc1)C(F)(F)F` (stereo not drawn) [Compound 181, 2-{4-[(4,6-difluoro-1,3-benzothiazol-2-yl)oxy]phenyl}-1,1,1-trifluoropropan-2-ol] were, in that order, above 75%, below 10% and 0 to 50%.
